# Measured values published in patent US20230140941A1, “NON-ATP/CATALYTIC SITE P38 MITOGEN ACTIVATED PROTEIN KINASE INHIBITORS” (UNIVERSITY OF MARYLAND, BALTIMORE, priority 2020, published 2023).
# Assays:
# LPS-induced lung injury = assay: Mouse acute lung injury, treatment 6 h post-LPS (FIG. 10); assay type: in vivo; conditions: 50 μg LPS i.t., 24 h at 39° C., 1 mg in 0.5 ml DMSO 6 h post-LPS
# Experimental: All mice received 50 μg LPS i.t. and were kept 24 h at 39° C.; all treatments 1 mg in 0.5 ml DMSO given 6 h post-LPS; mean±SM, n=5, * p=0.03 vs DMSO #1; † p=0.16 vs DMSO #2. Lung injury was assessed by measuring total protein in the lung lavage fluid.
# (§1) First, the compounds can block thrombin-induced cell permeability in human vascular endothelial cells (FIG. 8). […] Mice were pretreated i.p. with 1 mg of test compounds and then treated with […] LPS i.t. at 39° C. to induce inflammation. Lung injury was assessed by measuring total protein in the lung lavage fluid. […] All mice received 50 μg LPS i.t. and were kept 24 h at 39° C.; all treatments 1 mg in 0.5 ml DMSO given 6 h post-LPS; mean±SM, n=5, * p=0.03 vs DMSO #1; † p=0.16 vs DMSO #2. Lung injury was assessed by measuring total protein in the lung lavage fluid.
# rheumatoid arthritis = conditions: two trials; cited from earlier work
# [1] = tested on: patients with Crohn's disease; conditions: cited from earlier work
# HMVECL monolayers = assay: Endothelial permeability assay (10 kDa dextran flux); assay type: cell-based, human; conditions: TNFα and 39.5° C. for 6 h
# Experimental: Endothelial permeability assay: Permeability of HMVECL monolayers was assessed by measuring transendothelial flux of 10 kDa dextran conjugated to Cascade blue fluorescent dye for 30 min at 37° C. in Matrigel-coated 3 μm pore size Transwell plates.
# [2] = tested on: LPS-induced lung inflammation; assay: Mouse acute lung injury, pretreatment i.p. 1 mg (FIG. 9); assay type: in vivo; conditions: pretreated i.p. 1 mg, then 100 mg LPS i.t. at 39° C.
# Experimental: Mice were pretreated i.p. with 1 mg of test compounds and then treated with […] LPS i.t. at 39° C. to induce inflammation. Lung injury was assessed by measuring total protein in the lung lavage fluid.
# as §1
# recombinant ERK2 = recombinant ERK2 (Homo sapiens, UniProt P28482); assay: Differential scanning fluorimetry (DSF), ERK2; assay type: binding; conditions: for ERK2 ΔTm (° C.) @100 μM: change in melting temperature relative to DMSO control in DSF assay; for stabilization of ERK2 in DSF: 10-100 μM
# [3] = tested on: p38-dependent phosphorylation of MK2; assay: Inhibition of substrate phosphorylation in HeLa cells, MK2; assay type: cell-based, human; conditions: 10 μM SB203580 or 50 μM UM101 30 min, then anisomycin
# Description: (§2) Cell extracts prepared in RIPA buffer containing protease and phosphatase inhibitors were resolved by SDS-PAGE, transferred to PVDF membrane, blocked with 5% nonfat dry milk, probed with primary antibodies against phosphorylated MK2 and Stat-1, and total p38α as a loading control. Bands were detected using secondary antibodies conjugated to infrared fluorophores and infrared fluorescence imaging (Odyssey; LICOR).
# [4] = target: unphosphorylated recombinant human p38α (Homo sapiens, UniProt Q16539); assay: Differential scanning fluorimetry (DSF), p38α; conditions: for p38α ΔTm (° C.) @100 μM: change in melting temperature relative to DMSO control in DSF assay; for increase in melting temperature of p38α: added at 100 μM
# p38β [5] = target: T1, p38β (Homo sapiens, UniProt Q15759); assay: STD-NMR, p38β; assay type: binding; conditions: 200 μM UM101, 5 μM protein
# T1 construct: HA (N); made in house; host or cells: E. coli BL21
# Experimental: (§3) Spectra were recorded on an Agilent DD2 500-MHz spectrometer equipped with a 5-mm inverse HFCN probe head at 300 K. During each transient, the protein was saturated with a series of 58 […]-shaped pulses (50 ms, 1 ms delay between pulses) using the vendor-supplied STD-ES pulse sequence, for a total saturation time of 3 seconds. The on-resonance irradiation of protein was done at 0.5 ppm and off-resonance irradiation at 30 ppm. The vendor-supplied WATERGATE pulse sequence was used to suppress the water signal in the STD spectrum. The on-resonance and off-resonance pulse sequences were subtracted internally. A total of 16,384 transients were collected for each STD experiment with a 1 second delay between acquisitions, 6000 Hz spectral width, and 1.3 second acquisition time.
# [6] = tested on: p38-dependent phosphorylation of Stat-1; assay: Inhibition of substrate phosphorylation in HeLa cells, Stat-1; assay type: cell-based, human; conditions: 10 μM SB203580 or 50 μM UM101 30 min, then anisomycin
# Description: as §2
# mutated p38α = target: T2, mutated p38α (Homo sapiens, UniProt Q16539, H107T/K165R/L108F/R49K); assay: STD-NMR, mutated p38α; assay type: binding; conditions: 200 μM UM101, 5 μM protein
# T2 construct: made in house; host or cells: E. coli BL21
# Experimental: as §3
# HMVECLs [7] = assay: Cytotoxicity, MTS assay; assay type: cell-based, human; conditions: 100 μM for 48 h
# [8] = tested on: IL-8-directed neutrophil TEM through HMVECLs; assay: Neutrophil transendothelial migration (TEM) assay; assay type: cell-based, human; conditions: HMVECLs 39.5° C. 6 h
# Experimental: Neutrophil transendothelial migration (TEM) assay: Neutrophils were isolated from heparinized venous blood that was collected from healthy volunteers using a protocol approved by the University of Maryland Institutional Review Board and TEM of calcein-labeled neutrophils through HMVECLs was measured.
# [9] = target: T3, p38α mutant (R49K/HL 107-8TF/K165R) (Homo sapiens, UniProt Q16539, H107T/K165R/L108F/R49K); assay: DSF, p38α mutant with 4 mutations in CADD-targeted pocket; assay type: binding; conditions: four of ten target pocket amino acids substituted
# T3 construct: made in house; host or cells: E. coli BL21
# HMVECLs [10] = assay: Cytotoxicity, LDH release; assay type: cell-based, human; conditions: 100 μM for 48 h
# [11] = tested on: LPS/hyperthermia-induced ALI; assay: Mouse LPS/hyperthermia-induced acute lung injury model, pretreatment; conditions: for mice died within 24 h: 1000 μg i.p. 30 min prior to 50 μg LPS i.t. and hyperthermia
# p38β [12] = target: T1, p38β; assay: Differential scanning fluorimetry (DSF), p38β; assay type: binding
# p38α = target: T4, p38α (Homo sapiens, UniProt Q16539); assay: STD-NMR, p38α; assay type: binding; conditions: 200 μM UM101, 5 μM protein
# T4 construct: made in house; host or cells: E. coli BL21
# Experimental: as §3
# [13] = tested on: patients at-risk for ARDS; conditions: cited from earlier work
# [14] = tested on: patients with hypercholesterolemia; conditions: cited from earlier work
# p38α vs. p38β = conditions: cited from earlier work
# HMVECLs [15] = assay: TNFα-induced gene expression in HMVECLs (RNASeq); conditions: 10 μM SB203580
# T1 sequence (Q15759 whole entry): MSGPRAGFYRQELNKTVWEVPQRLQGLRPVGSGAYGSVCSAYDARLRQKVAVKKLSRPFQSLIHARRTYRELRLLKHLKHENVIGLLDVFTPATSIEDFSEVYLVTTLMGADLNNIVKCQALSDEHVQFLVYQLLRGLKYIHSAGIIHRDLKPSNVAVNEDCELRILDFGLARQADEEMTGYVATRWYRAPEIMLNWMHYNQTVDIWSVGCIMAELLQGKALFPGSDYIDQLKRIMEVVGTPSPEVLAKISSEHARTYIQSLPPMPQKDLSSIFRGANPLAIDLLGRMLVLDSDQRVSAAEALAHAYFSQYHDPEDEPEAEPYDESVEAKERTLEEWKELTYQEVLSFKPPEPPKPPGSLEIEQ
# Chain of unphosphorylated recombinant human p38α (Q16539 whole entry): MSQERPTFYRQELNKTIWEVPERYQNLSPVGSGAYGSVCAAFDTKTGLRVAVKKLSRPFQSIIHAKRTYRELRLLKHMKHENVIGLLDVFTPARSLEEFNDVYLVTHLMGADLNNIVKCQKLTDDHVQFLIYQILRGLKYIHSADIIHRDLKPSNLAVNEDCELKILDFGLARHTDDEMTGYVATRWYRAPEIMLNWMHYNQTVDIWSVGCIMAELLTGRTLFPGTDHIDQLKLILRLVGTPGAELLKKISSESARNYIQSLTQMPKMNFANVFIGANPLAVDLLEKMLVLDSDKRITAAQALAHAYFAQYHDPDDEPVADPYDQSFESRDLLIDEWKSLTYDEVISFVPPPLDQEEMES
# Chain of recombinant ERK2 (P28482 whole entry, species assumed): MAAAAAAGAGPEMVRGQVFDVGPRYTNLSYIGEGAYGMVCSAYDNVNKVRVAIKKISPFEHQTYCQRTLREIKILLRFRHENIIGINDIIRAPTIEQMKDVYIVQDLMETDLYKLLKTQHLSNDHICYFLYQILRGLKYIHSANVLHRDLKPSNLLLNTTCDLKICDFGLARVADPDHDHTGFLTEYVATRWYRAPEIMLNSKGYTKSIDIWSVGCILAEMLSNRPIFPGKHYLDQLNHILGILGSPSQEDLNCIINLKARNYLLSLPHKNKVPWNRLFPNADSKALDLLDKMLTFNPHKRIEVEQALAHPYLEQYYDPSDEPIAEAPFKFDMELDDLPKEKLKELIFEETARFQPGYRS
# T2 sequence (Q16539 whole entry R49K/H107T/L108F/K165R): as the sequence (Q16539 whole entry) above, with R49K, H107T, L108F, K165R counted along it
# T3 sequence (Q16539 whole entry R49K/H107T/L108F/K165R): as the sequence (Q16539 whole entry) above, with R49K, H107T, L108F, K165R counted along it
# T4 sequence (Q16539 whole entry): as the sequence (Q16539 whole entry) above
smiles,measurement,setting,value
CN(C)c1cccc2c(S(=O)(=O)Nc3ccc(CN4CCOCC4)cc3)cccc12 [SF-7-044],protein leak into bronchoalveolar lavage fluid (total protein),LPS-induced lung injury,reduced protein leak
NC(=O)c1ccc(N(C(N)=O)c2c(F)cccc2F)nc1-c1ccc(F)cc1F [VX-702],proportion of treated subjects with ACR20 symptom score vs. placebo,rheumatoid arthritis,small increases
Cc1ccc(-n2nc(C(C)(C)C)cc2NC(=O)Nc2ccc(OCCN3CCOCC3)c3ccccc23)cc1 [BIRB 796],clinical effect,[1],no clinical effect
same,serum CRP levels,[1],transiently reduced
"O=C(Nc1ccc(CN2CCS(=O)(=O)CC2)cc1)c1ccc(Cl)cc1 [UM101, 4-chloro-N-{4-[(1,1-dioxo-1lambda˜6˜-,4thiazinan-4-yl)methyl]phenyl}benzaniide]",reduction of TNFα/hyperthermia-induced permeability increase for 10 kDa dextran,HMVECL monolayers; 10 μM,74%
same,reduction of TNFα/hyperthermia-induced permeability increase for 10 kDa dextran,HMVECL monolayers; 25 μM,89%
same,reduction of TNFα/hyperthermia-induced permeability increase for 10 kDa dextran,HMVECL monolayers; 100 μM,> 100%
same,protein leak into bronchoalveolar lavage fluid (total protein),[2],reduced protein leak
same,ERK2 ΔTm (° C.) @100 μM,recombinant ERK2,0.0175 °C
same,stabilization of ERK2 in DSF,recombinant ERK2,not ERK2
same,anisomycin-stimulated phosphorylation of MK2 (immunoblot),[3],reduced
same,stabilization of p38α in DSF,[4],only stabilized p38α
same,p38α ΔTm (° C.) @100 μM,[4],0.667 °C
same,increase in melting temperature of p38α,[4],~0.7 °C
same,interaction with p38β in STD-NMR,p38β [5],much weaker
same,anisomycin-stimulated phosphorylation of Stat-1 (immunoblot),[6],reduced
same,interaction with mutated p38α in STD-NMR,mutated p38α,much weaker
same,toxicity in MTS assay,HMVECLs [7],Neither compound was toxic
same,reduction of hyperthermia-augmented increase in neutrophil TEM,[8]; 10 μM,95%
same,reduction of hyperthermia-augmented increase in neutrophil TEM,[8]; 25 μM,less than baseline levels
same,reduction of hyperthermia-augmented increase in neutrophil TEM,[8]; 50 μM,less than baseline levels
same,binding to p38α mutant in DSF,[9],no UM101-binding
same,toxicity in LDH release assay,HMVECLs [10],Neither compound was toxic
same,reduction of lavage neutrophil content vs. DMSO-treated controls,[11]; 100 μg i.p.,44.4%
same,reduction of lavage neutrophil content vs. DMSO-treated controls,[11]; 300 μg i.p.,49.5%
same,reduction of lavage neutrophil content vs. DMSO-treated controls,[11]; 500 μg i.p.,55.3%
same,reduction of lavage neutrophil content vs. DMSO-treated controls,[11]; 1000 μg i.p.,54%
same,mice survived (24 h),"[11]; 100, 300, 500 or 1000 μg i.p. 30 min prior to 50 μg LPS i.t. and hyperthermia",All sixteen
same,stabilization of p38β in DSF,p38β [12],only stabilized p38α
same,interaction with p38α in STD-NMR,p38α,protons in both aromatic rings of UM101 interact with p38α
"O=C1c2cc(S(=O)(=O)NCCO)ccc2-c2ccc(S(=O)(=O)NCCO)cc21 [UM60, N2,N7-di(2-hydroxyethyl)-9-oxo-9H-2,7-fluorenedisulfonamiide]",reduction of TNFα/hyperthermia-induced permeability increase for 10 kDa dextran,HMVECL monolayers; 10 μM,no effect
same,reduction of TNFα/hyperthermia-induced permeability increase for 10 kDa dextran,HMVECL monolayers; 25 μM,no effect
same,reduction of TNFα/hyperthermia-induced permeability increase for 10 kDa dextran,HMVECL monolayers; 100 μM,71%
same,ERK2 ΔTm (° C.) @100 μM,recombinant ERK2,0.195 °C
same,stabilization of ERK2 in DSF,recombinant ERK2,not ERK2
same,stabilization of p38α in DSF,[4],stabilized p38α
same,p38α ΔTm (° C.) @100 μM,[4],0.735 °C
same,increase in melting temperature of p38α,[4],~0.7 °C
same,toxicity in MTS assay,HMVECLs [7],Neither compound was toxic
same,reduction of hyperthermia-augmented increase in neutrophil TEM,[8]; 10 μM,18%
same,reduction of hyperthermia-augmented increase in neutrophil TEM,[8]; 25 μM,89%
same,reduction of hyperthermia-augmented increase in neutrophil TEM,[8]; 50 μM,less than baseline levels
same,toxicity in LDH release assay,HMVECLs [10],Neither compound was toxic
same,mice died within 24 h,[11],Four of six
O=C(Nc1ccc(CN2CCOCC2)cc1)c1ccc(Cl)cc1 [SF-7-009],protein leak into bronchoalveolar lavage fluid (total protein),[2],reduced protein leak
same,protein leak into bronchoalveolar lavage fluid (total protein),LPS-induced lung injury,reduced protein leak
Cc1cc(F)ccc1-c1nc(NC(CO)CO)nc2c1ccc(=O)n2-c1c(F)cccc1F [dilmapimod],safety,[13],safe at the doses administered
same,serum C-reactive protein (CRP) levels,[13],modestly reduced
Cc1c(F)cc(C(=O)NC2CC2)cc1-c1ccc(C(=O)NCC(C)(C)C)cn1 [losmapimod],serum CRP,[14],reduced serum CRP
same,vascular relaxation,[14],improved vascular relaxation
CN(C)c1cccc2c(S(=O)(=O)Nc3ccc(CN4CCS(=O)(=O)CC4)cc3)cccc12 [SF-6-222],protein leak into bronchoalveolar lavage fluid (total protein),[2],reduced protein leak
same,protein leak into bronchoalveolar lavage fluid (total protein),LPS-induced lung injury,reduced protein leak
"C[S+]([O-])c1ccc(-c2nc(-c3ccncc3)c(-c3ccc(F)cc3)[nH]2)cc1 (centres unmarked) [SB203580, reference compound]",reduction of TNFα/hyperthermia-induced permeability increase for 10 kDa dextran,HMVECL monolayers; 10 μM,50%
same,anisomycin-stimulated phosphorylation of MK2 (immunoblot),[3],reduced
same,higher binding affinity for p38α than p38β,p38α vs. p38β,~10 fold
same,number of TNFα-induced genes with expression inhibited,HMVECLs [15],61 genes
same,number of genes with expression increased,HMVECLs [15],38 genes
same,anisomycin-stimulated phosphorylation of Stat-1 (immunoblot),[6],reduced
same,reduction of hyperthermia-augmented increase in neutrophil TEM,[8]; 10 μM,84%
same,reduction of lavage neutrophil content vs. DMSO-treated controls,[11]; 1000 μg i.p.,46.8%
same,mice died within 24 h,[11],one of six
same,stabilization of p38β in DSF,p38β [12],stabilized both p38α and p38β
